Laboratory results taken from ChEMBL document CHEMBL3763074, “Hesperetin derivatives: Synthesis and anti-inflammatory activity” (Bioorg Med Chem Lett, 2016).
Calls of active or inactive are those of the source. The rule behind the calls is not given here.

Tests used:
[1] = Octanol/water partition coefficient, logP of the compound by shake flask method; assay type: physicochemical
RAW264.7 [2] = experiment: Antiinflammatory activity in mouse RAW264.7 assessed as decrease in LPS-induced IL-6 production at 10 uM pretreated with 1 ug/ml LPS for 22 hrs followed by addition of compound for 24 hrs by ELISA; assay type: functional, cell-based
RAW264.7 [3] = experiment: Antiinflammatory activity in mouse RAW264.7 assessed as decrease in LPS-induced TNF-alpha production at 10 uM pretreated with 1 ug/ml LPS for 22 hrs followed by addition of compound for 24 hrs by ELISA; assay type: functional, cell-based
RAW264.7 [4] = experiment: Cytotoxicity against mouse RAW264.7 cells at 1 to 10 uM for 24 hrs by MTT assay; assay type: cell-based; conditions: raw264.7, 24 h
RAW264.7 [5] = experiment: Antiinflammatory activity in mouse RAW264.7 assessed as decrease in LPS-induced TNF-alpha production pretreated with 1 ug/ml LPS for 22 hrs followed by addition of compound for 24 hrs by ELISA; assay type: functional, cell-based
RAW264.7 [6] = experiment: Antiinflammatory activity in mouse RAW264.7 assessed as decrease in LPS-induced IL-6 production pretreated with 1 ug/ml LPS for 22 hrs followed by addition of compound for 24 hrs by ELISA; assay type: functional, cell-based
RAW264.7 [7] = experiment: Cytotoxicity against mouse RAW264.7 cells at 100 uM for 24 hrs by MTT assay; assay type: cell-based; conditions: raw264.7, 24 h
RAW264.7 [8] = experiment: Antiinflammatory activity in mouse RAW264.7 assessed as inhibition of LPS-induced notch-1 expression at 10 uM pretreated with 1 ug/ml LPS for 22 hrs followed by addition of compound for 24 hrs by Western blot analysis; assay type: functional, cell-based
RAW264.7 [9] = experiment: Antiinflammatory activity in LPS-induced mouse RAW264.7 assessed as inhibition of LPS-induced iNOS expression pretreated with 1 ug/ml LPS for 22 hrs followed by addition of compound for 24 hrs by Western blot analysis; assay type: functional, cell-based

Row | SMILES | logP [1] | Activity (RAW264.7 [2]) | Activity (RAW264.7 [3]) | Activity (RAW264.7 [4]) | Activity (RAW264.7 [5]) | Activity (RAW264.7 [6]) | Activity (RAW264.7 [7]) | Activity (RAW264.7 [8]) | Activity (RAW264.7 [9])
1 | COc1ccc([C@@H]2CC(=O)c3c(O)cc(O)cc3O2)cc1O [HESPERETIN] | 2.15 | Active | Active | Non-toxic | – | – | – | – | –
2 | COc1ccc([C@@H]2CC(=O)c3c(cc(O)c(CN4CCOCC4)c3O)O2)cc1O | 1.23 | Active | Active | – | – | – | – | – | –
3 | COc1ccc2c(c1)c(CC(=O)O)c(C)n2C(=O)c1ccc(Cl)cc1 | – | Active | Active | – | – | – | – | – | –
4 | COc1ccc([C@@H]2CC(=O)c3c(cc(O)c(CN4CCN(CCO)CC4)c3O)O2)cc1O | 1.15 | Active | Active | – | – | – | – | – | –
5 | COc1ccc([C@@H]2CC(=O)c3c(cc(O)c(CNC(C)c4ccccc4)c3O)O2)cc1O (stereo not given in full) | 1.72 | Active | Active | – | – | – | – | – | –
6 | COc1ccc([C@@H]2CC(=O)c3c(cc(O)c(CNC(C)C)c3O)O2)cc1O | -0.26 | Active | Active | Non-toxic | Dose-dependent effect | Dose-dependent effect | – | Active | –
7 | CCN(CC)Cc1c(O)cc2c(c1O)C(=O)C[C@@H](c1ccc(OC)c(O)c1)O2 | 1.68 | Active | Active | Non-toxic | – | – | – | – | –
8 | COc1ccc([C@@H]2CC(=O)c3c(cc(O)c(CNCCc4ccccc4)c3O)O2)cc1O | 1.67 | Active | Active | Non-toxic | – | – | Toxic | – | –
9 | COc1ccc([C@@H]2CC(=O)c3c(cc(O)c(CN(C)C)c3O)O2)cc1O | 1.03 | Active | Active | – | – | – | – | – | –

Now from value to compound, other results behind:

Row | logP [1] | SMILES | Activity (RAW264.7 [2]) | Activity (RAW264.7 [3]) | Activity (RAW264.7 [4]) | Activity (RAW264.7 [5]) | Activity (RAW264.7 [6]) | Activity (RAW264.7 [7]) | Activity (RAW264.7 [8]) | Activity (RAW264.7 [9])
10 | 0.04 | CCC(C)NCc1c(O)cc2c(c1O)C(=O)C[C@@H](c1ccc(OC)c(O)c1)O2 (stereo not given in full) | Active | Active | – | – | – | – | – | –
11 | -0.75 | CCN1CCN(Cc2c(O)cc3c(c2O)C(=O)C[C@@H](c2ccc(OC)c(O)c2)O3)CC1 | Active | Active | Non-toxic | Dose-dependent effect | Dose-dependent effect | Toxic | Active | –
12 | 1.73 | COc1ccc([C@@H]2CC(=O)c3c(cc(O)c(CNCCc4ccc([N+](=O)[O-])cc4)c3O)O2)cc1O | Active | Active | – | – | – | – | – | –
13 | 1.56 | COc1ccc(CCNCc2c(O)cc3c(c2O)C(=O)C[C@@H](c2ccc(OC)c(O)c2)O3)cc1 | Active | Active | Non-toxic | – | – | Toxic | – | –
14 | 1.19 | COc1ccc([C@@H]2CC(=O)c3c(cc(O)c(CN4CCN(C)CC4)c3O)O2)cc1O | Active | Active | Non-toxic | – | – | – | – | –
15 | 1.77 | COc1ccc([C@@H]2CC(=O)c3c(cc(O)c(CNCCc4ccc(Cl)cc4)c3O)O2)cc1O | Active | Active | – | – | – | – | – | –
16 | 1.18 | COc1ccc([C@@H]2CC(=O)c3c(cc(O)c(CN4CCN(CCN5CCOCC5)CC4)c3O)O2)cc1O | Active | Active | – | – | – | – | – | –
17 | -0.76 | COc1ccc([C@@H]2CC(=O)c3c(cc(O)c(CNC(C)(C)C)c3O)O2)cc1O | Active | Active | Non-toxic | Dose-dependent effect | Dose-dependent effect | Toxic | Active | Dose-dependent effect
18 | 1.2 | COc1ccc([C@@H]2CC(=O)c3c(cc(O)c(CNCCCN4CCOCC4)c3O)O2)cc1O | Active | Active | – | – | – | – | – | –
